Kd and IC50 data for two compounds are collected here from ChEMBL document CHEMBL4834482, “Concise solid-phase synthesis enables derivatisation of YEATS domain cyclopeptide inhibitors for improved cellular uptake” (Bioorg Med Chem, 2021).

pIC50, pKd: −log10 of the molar value.

Experiment [1] addresses T1, Protein AF-9 (Homo sapiens, UniProt P42568).
T1 sequence (P42568 whole entry): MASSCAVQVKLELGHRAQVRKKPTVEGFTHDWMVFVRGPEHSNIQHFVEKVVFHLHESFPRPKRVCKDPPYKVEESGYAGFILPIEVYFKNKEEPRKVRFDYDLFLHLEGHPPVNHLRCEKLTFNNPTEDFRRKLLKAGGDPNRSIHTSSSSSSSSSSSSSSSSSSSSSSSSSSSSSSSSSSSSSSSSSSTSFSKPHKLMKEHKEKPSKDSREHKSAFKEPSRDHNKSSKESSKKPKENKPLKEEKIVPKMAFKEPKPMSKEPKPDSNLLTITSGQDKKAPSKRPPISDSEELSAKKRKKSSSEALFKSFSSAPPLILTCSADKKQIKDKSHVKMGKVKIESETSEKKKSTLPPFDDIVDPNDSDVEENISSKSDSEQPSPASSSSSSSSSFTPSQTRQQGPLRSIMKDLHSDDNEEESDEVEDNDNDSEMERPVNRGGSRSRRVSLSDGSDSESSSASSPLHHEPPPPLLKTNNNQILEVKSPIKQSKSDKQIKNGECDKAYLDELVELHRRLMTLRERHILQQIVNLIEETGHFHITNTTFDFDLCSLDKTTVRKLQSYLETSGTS
As to the kind of experiment: Binding affinity to AF9 YEATS domain (1 to 138 residues) (unknown origin) by isothermal titration calorimetry. (In general: Isothermal titration calorimetry measures the heat released or taken up as one component is titrated into another.)

Experiment [2] deals with T1, Protein AF-9. The experiment is described as follows: Inhibition of AF9 YEATS domain (1 to 138 residues) (unknown origin) assessed as inhibition of probe-1 induced AF9 YEATS domain labelling incubated for 10 mins followed by UV-irradiation for 20 mins by Photo-cross linking based In-gel fluorescence scanning analysis.

By pKd is commonly meant the Kd on a negative log10 scale, so that one unit is a factor of ten. A lower pKd goes with a large Kd. One may read the pIC50 as the IC50 on a negative log10 scale, so that one unit is a factor of ten. As to `CC(=O)N[C@@H](Cc1ccc(O)cc1)C(=O)NCC(=O)N[C@@H](CCCNC(=N)N)C(=O)N[C@@H](CCCCN)C(=O)N[C@@H](CCCCN)C(=O)N[C@@H](CCCNC(=N)N)C(=O)N[C@@H](CCCNC(=N)N)C(=O)N[C@@H](CCC(N)=O)C(=O)N[C@@H](CCCNC(=N)N)C(=O)N[C@@H](CCCNC(=N)N)C(=O)N[C@@H](CCCNC(=N)N)C(=O)NCCCC[C@@H]1NC(=O)[C@H]([C@@H](C)O)NC(=O)[C@@H](NC(=O)OCc2ccccc2)CCCCNC(=N)NCCC[C@@H](C(=O)N[C@@H](CCCCNC(=O)c2cnco2)C(N)=O)NC1=O`, the pKd at Protein AF-9 [1] was 6.10. Besides, on Protein AF-9 [2], the pIC50 is 5.76.

For the compound `C[C@@H]1NC(=O)[C@H]([C@H](C)O)NC(=O)[C@@H](NC(=O)OCc2ccccc2)CCCCNC(=N)NCCC[C@H](C(=O)N[C@@H](CCCCNC(=O)c2cnco2)C(N)=O)NC1=O`, the pKd on Protein AF-9 [1] is 6.43. Also, the pIC50 at Protein AF-9 [2] is 6.39.
